Results reported in patent US20260000642A1 (Tay Therapeutics Limited, priority 2022, published 2026).

Experiments:
CXCL10 = test: Human PBMC assay, CXCL10 by ELISA (IFN-γ stimulation); format: cell-based
Protocol: The impact of Examples 23, 80, and 101 on IL-17A, IL-22, and CXCL10 levels was analyzed in cryopreserved human peripheral blood mononuclear cells (PBMC) by ELISA.
For IL-17A and IL-22 assays, Examples 23, 80, and 101 were serially diluted from 10 mM in DMSO and further diluted in assay media to 100× the required final concentration, of which, 2 μL was added per well to a round-bottom 96-well tissue culture plate where the final DMSO concentration per well was 0.1%. CD2, CD3, and CD28 antibody-coated beads from the T-cell activation/expansion kit (Miltenyi Biotec) were added to the PBMC at a bead-to-cell ratio of 1:2. The mixture of PBMCs and beads were seeded into the wells of the round-bottom 96-well plate at a concentration of 2×10^5 cells/well in a total volume of 200 μL. The cells were cultured for 72 hours at 37° C. and 5% CO2 and then supernatants were collected and IL-17A and IL-22 levels were measured by ELISA. For the CXCL10 assay, Examples 23, 80, and 101 were serially diluted from 10 mM in DMSO and further diluted in assay media to 100× the required final concentration, of which 2 μL was added per well to a 96-well tissue culture plate. The final compound concentration ranged from 30,000 nM to 0.005 nM and the final DMSO concentration per well was 0.3%. PBMCs were seeded at approximately […] in the wells of the 96-well tissue culture plate in a total volume of 190 μL. The plate was incubated for 1 hour at 37° C. and 5% CO2. The cells were then stimulated with IFN-γ (15 ng/mL final concentration) in a volume of 10 μL. The cells were then cultured for 24 hours at 37° C. and 5% CO2. The supernatant was collected and CXCL10 levels were measured by ELISA.

IL-17A = test: Human PBMC assay, IL-17A by ELISA (CD2/CD3/CD28 bead stimulation); format: cell-based; details: 72 hours
Protocol: (§1) CD2, CD3, and CD28 antibody-coated beads from the T-cell activation/expansion kit (Miltenyi Biotec) were added to the PBMC at a bead-to-cell ratio of 1:2. The mixture of PBMCs and beads were seeded into the wells of the round-bottom 96-well plate at a concentration of 2×10^5 cells/well in a total volume of 200 μL. The cells were cultured for 72 hours at 37° C. and 5% CO2 and then supernatants were collected and IL-17A and IL-22 levels were measured by ELISA. […] The final compound concentration ranged from 30,000 nM to 0.005 nM and the final DMSO concentration per well was 0.3%. PBMCs were seeded at approximately […] in the wells of the 96-well tissue culture plate in a total volume of 190 μL. The plate was incubated for 1 hour at 37° C. and 5% CO2. […] The cells were then cultured for 24 hours at 37° C. and 5% CO2. The supernatant was collected and CXCL10 levels were measured by ELISA.

IL-22 = test: Human PBMC assay, IL-22 by ELISA (CD2/CD3/CD28 bead stimulation); format: cell-based; details: 72 hours
Protocol: as §1

[1] = Sprague-Dawley rat pharmacokinetics (IV and PO); format: in vivo; details: male Sprague-Dawley rats, cassette mode, Method 1
From the text: BET protein inhibitors with a long half-life and good oral bioavailability in in vivo DMPK parameters are promising oral drug candidates. Some of the exemplary compounds of the current disclosure have a long half-life and good oral bioavailability in in vivo DMPK parameters in the Sprague-Dawley rat following intravenous (IV) and oral (PO) dosing. The experimental methods and results (Table 5) are provided hereinafter.
Sprague-Dawley Rat Pharmacokinetics, Method 1
Compounds were formulated in 5% DMSO, 40% PEG-400, 55% Milli-Q water at a concentration of 0.2 mg/mL for IV and at 0.5 mg/mL for PO. Two male Sprague-Dawley rats per arm were dosed with up to 5 compounds in cassette mode, which each compound being dosed at 1 mg/kg IV and 5 mg/kg PO. Blood was sampled at various timepoints and plasma isolated. 50 μL of plasma with 5 μL of blank Sprague-Dawley rat plasma were added to 200 μL of acetonitrile containing IS mixture. The samples were vortexed for 30 s. After centrifugation at 4 degrees Celsius, 3900 rpm for 15 min, the supernatant was diluted 3 times with water. 20 μL of diluted supernatant was injected into the LC/MS/MS system for quantitative analysis and concentration of analyte determined by comparison with matrix matched standard curve. WinNonlin (Phoenix™, version 8.3) or other similar software may be used for pharmacokinetic calculations.

BRD4 BD2 = molecular target: T1, BRD4 BD2 (Homo sapiens, UniProt O60885); test: NanoBRET bromodomain assay, NanoLuc-BRD4-BD2 fusion vector in HEK293 cells; format: cell-based; details: NanoBRET, HEK293 cells, top concentration 10 μM
T1 construct: HEK293 cells were transfected using NanoLuc-BRD4-BD1 or NanoLuc-BRD4-BD2 fusion vectors; host or cells: HEK293
From the text: (§2) Bromodomain Assay Procedure

[2] = Plasma stability assay, rat plasma; format: in vitro ADME; details: 37° C.
Protocol: Exemplary compounds of the disclosure are stable upon incubation in mouse plasma. Stability is expressed as a % remaining after 120 minutes. The experimental methods and results (Table 2) are provided hereinafter.
Plasma Stability Assay, Method 1
From stock solution of compound in 10 mM DMSO, a working solution of 1 mM is prepared by diluting the compound in DMSO. To 398 μL of plasma pre-warmed at 37° C. for 15 minutes), 2 μL of working solution of compound is added, resulting in a final concentration of 5 μM (0.5% DMSO) for the compound. The sample is then incubated at 37° C. Aliquot is withdrawn at specified time-points (0, 15, 30, 60 and 120 mins). The reaction is stopped by addition of 450 μL cold acetonitrile containing internal standard (IS). […] Aliquots of the supernatant is analysed using LC-MS/MS. The percent remaining of the compound at each time point is calculated with respect to the control sample (0 min time-point).
Plasma Stability Assay, Method 2
A working solution of compound (500 μM) is prepared in DMSO (100%). To 735 μL of plasma, 15 μL of working solution of compound is added—resulting in a final concentration of 10 μM (2% DMSO) for the compound. The sample is then incubated at 37° C. Aliquot is withdrawn at time-points—0, 15, 30, 60, 90 and 120 mins. The reaction is stopped by using chilled acetonitrile containing internal standard (IS). The samples are centrifuged and the supernatants analyzed using LC-MS/MS. The percent remaining of the compound at each time point is calculated with respect to the control sample (0 min time-point).

BRD4 BD1 = molecular target: T2, BRD4 BD1 (Homo sapiens, UniProt O60885); test: NanoBRET bromodomain assay, NanoLuc-BRD4-BD1 fusion vector in HEK293 cells; format: cell-based; details: top concentration 10 μM
T2 construct: HEK293 cells were transfected using NanoLuc-BRD4-BD1 or NanoLuc-BRD4-BD2 fusion vectors; host or cells: HEK293
From the text: as §2

[3] = Plasma stability assay, human plasma; format: in vitro ADME; details: 37° C., Method 1 (5 μM)
[4] = Intrinsic clearance in liver microsomes, rat; format: in vitro ADME; details: pH 7.4, rat liver microsomes 0.5 mg/mL, Method 1, read-out: Half-Life (T1/2) (min) Rat
Protocol: (§3) BET protein inhibitors with a long half-life in liver microsomes from various species are in some embodiments promising oral drug candidates. Some of the exemplary compounds of the current disclosure have a long half-life in liver microsomes, expressed in minutes. The experimental methods and results (Table 3) are provided hereinafter.
(§4) Intrinsic Clearance in Liver Microsomes Assay, Method 1
(§5) From stock solution of compound on 10 mM DMSO, a working solution of 0.1 mM is prepared by diluting the compound in DMSO. 6.25 μL of a 20 mg/mL solution of microsomes in PBS pH 7.4 buffer is added to 216.25 μL PBS pH 7.4 buffer (final microsome concentration—0.5 mg/mL). 25 μL of 10 mM solution of NADPH in PBS pH 7.4 buffer is added to the incubations (final NADPH concentration—1 mM). The mixture is pre-warmed to 37° C. for 10 minutes. 2.5 μL of test compound working solution is added (final compound concentration—1 μM with 1% DMSO). […] The percent compound remaining at each time point is calculated with respect to that of the 0.5 min sample. The data are analysed to calculate half-life. […]
(§6) A 50 mM stock solution (in DMSO) is prepared for the compound. […] The samples are centrifuged, and the supernatants analysed by LC-MS/MS. The percent compound remaining at each time point is calculated with respect to that of the 0 min sample. The data are then analysed to calculate half-life and intrinsic clearance (CLint). […]

[5] = Intrinsic clearance in liver microsomes, mouse; format: in vitro ADME; details: pH 7.4, mouse liver microsomes 0.5 mg/mL, Method 1, read-out: Half-Life (T1/2) (min) Mouse
Protocol: as §3, §4, §5, §6

SMILES: CNC(=O)c1[nH]c(-c2ncc(C)[nH]2)cc1O[C@@H](C)c1ccccc1 [Example 23, (S)—N-methyl-5-(5-methyl-1H-imidazol-2-yl)-3-(1-phenylethoxy)-1H-pyrrole-2-carboxamide]
- selectivity to induction of CXCL10 relative to IL-17A and IL-22 (CXCL10): showed selectivity
- IC50 for IL-17A relative to GSK620 (IL-17A): decreased mean 1050
- IC50 for IL-22 relative to GSK620 (IL-22): decreased mean 1050

SMILES: CNC(=O)c1[nH]c(-c2cnn(C(C)C)c2)cc1O[C@@H](C)c1ccccc1 [Example 80, (S)-5-(1-isopropyl-1H-pyrazol-4-yl)-N-methyl-3-(1-phenylethoxy)-1H-pyrrole-2-carboxamide]
- selectivity to induction of CXCL10 relative to IL-17A and IL-22 (CXCL10): showed selectivity
- IC50 for IL-17A relative to GSK620 (IL-17A): increased mean 1050
- IC50 for IL-22 relative to GSK620 (IL-22): decreased mean 1050

SMILES: CNC(=O)c1[nH]c(C(=O)NC2COC2)cc1OC(C)c1ccc(Cl)cc1 (single isomer, unassigned) [Example 31, 3-(1-(4-chlorophenyl)ethoxy)-N^2-methyl-N^5-(oxetan-3-yl)-1H-pyrrole-2,5-dicarboxamide]
- IV T1/2 ([1]; IV 1 mg/kg): 0.6 h
- PO F (%) ([1]; PO 5 mg/kg (IV 1 mg/kg)): 15%
- IC50 (BRD4 BD2): 50 to 200 nM
- Plasma Stability (% remaining at 120 minutes) Rat ([2]; Method 2 (10 μM)): 81%
- IC50 (BRD4 BD1): ≥ 10000 nM

SMILES: CNC(=O)c1[nH]c(C(=O)N[C@H]2CC[C@H](O)CC2)cc1O[C@@H](C)c1ccccc1 (single isomer, unassigned) [Example 97]
- bioavailability ([1]; rat, plasma, PO 5 mg/kg (IV 1 mg/kg), read-out: PO F (%)): 60%
- Plasma Stability (% remaining at 120 minutes) Human [3]: >99%
- half-life at 1 μM [4]: > 60 min
- Plasma Stability (% remaining at 120 minutes) Rat ([2]; Method 1 (5 μM)): >99%
- half-life at 1 μM [5]: 70 min
